Reference: patent publication US4698327A, “Novel glycopeptide derivatives” (priority 1986, dated 1987)
≈ marks a conversion by molar mass, not a printed value.

Legend:
[1] = test system: Staphylococcus aureus V41; assay: MIC, standard agar-dilution assay; assay type: cell-based
[2] = test system: Staphylococcus aureus X400; assay: MIC, standard agar-dilution assay; assay type: cell-based
[3] = test system: Staphylococcus aureus S13E; assay type: cell-based; conditions: agar dilution
[4] = test system: Staphylococcus epidermidis EPI1; assay type: cell-based; conditions: agar dilution
[5] = test system: Staphylococcus epidermidis 222; assay: MIC, standard agar-dilution assay; assay type: cell-based
[6] = test system: Streptococcus pyogenes C203; assay: MIC, standard agar-dilution assay; assay type: cell-based
[7] = test system: Streptococcus pneumoniae Park 1; assay type: cell-based; conditions: agar dilution
[8] = test system: Streptococcus faecium ATCC 9790; assay: MIC, standard agar-dilution assay; assay type: cell-based
[9] = test system: Streptococcus sp. group D 2041; assay: MIC, standard agar-dilution assay; assay type: cell-based
[10] = test system: Haemophilus influenzae C.L.; assay: MIC, standard agar-dilution assay; assay type: cell-based
[11] = test system: Haemophilus influenzae 76; assay: MIC, standard agar-dilution assay; assay type: cell-based
[12] = test system: Escherichia coli N10; assay: MIC, standard agar-dilution assay; assay type: cell-based
[13] = test system: Escherichia coli EC14; assay: MIC, standard agar-dilution assay; assay type: cell-based
[14] = test system: Escherichia coli TEM; assay: MIC, standard agar-dilution assay; assay type: cell-based
[15] = test system: Klebsiella pneumoniae X26; assay: MIC, standard agar-dilution assay; assay type: cell-based
[16] = test system: Klebsiella pneumoniae X68; assay: MIC, standard agar-dilution assay; assay type: cell-based
[17] = test system: Klebsiella pneumoniae KAE; assay: MIC, standard agar-dilution assay; assay type: cell-based
[18] = test system: Staphylococcus aureus NRRL B313; conditions: agar dilution
[19] = test system: Staphylococcus aureus; conditions: Staphylococcus aureus infection in mice; two doses, administered subcutaneously
[20] = test system: Streptococcus pyogenes; conditions: Streptococcus pyogenes infection in mice; two doses, administered subcutaneously
[21] = test system: Streptococcus pneumoniae; conditions: Streptococcus pneumoniae infection in mice; two doses, administered subcutaneously

Question: What does the source list for `CCCCCCCCCNC1(C)CC(OC2C(Oc3c4cc5cc3Oc3ccc(cc3Cl)C(O)C3NC(=O)C(NC(=O)C5NC(=O)C(CC(N)=O)NC(=O)C(NC(=O)C(CC(C)C)NC)C(O)c5ccc(c(Cl)c5)O4)c4ccc(O)c(c4)-c4c(O)cc(O)cc4C(C(=O)O)NC3=O)OC(CO)C(O)C2O)OC(C)C1O` (stereo not drawn) [Compound 5, N^van --(n-nonyl)vancomycin]?
Answer: MIC [1]: 0.25 µg/mL (≈ 0.159 µM); MIC [2]: 0.25 µg/mL (≈ 0.159 µM); MIC [3]: 0.25 µg/mL (≈ 0.159 µM); MIC [4]: 0.5 µg/mL (≈ 0.317 µM); MIC [5]: 0.25 µg/mL (≈ 0.159 µM); MIC [6]: 0.125 µg/mL (≈ 0.0793 µM); MIC [7]: 0.25 µg/mL (≈ 0.159 µM); MIC [8]: 0.25 µg/mL (≈ 0.159 µM); MIC [9]: 0.5 µg/mL (≈ 0.317 µM); MIC [10]: 64 µg/mL (≈ 40.6 µM); MIC [11]: 64 µg/mL (≈ 40.6 µM); MIC [12]: > 128 µg/mL; MIC [13]: > 128 µg/mL; MIC [14]: > 128 µg/mL; MIC [15]: > 128 µg/mL; MIC [16]: > 128 µg/mL; MIC [17]: > 128 µg/mL; MIC [18]: 0.25 µg/mL (≈ 0.159 µM); ED50 [19]: 2.9 mg/kg/2; ED50 [20]: 0.56 mg/kg/2; ED50 [21]: 0.81 mg/kg/2

Question: Which results are given for `CCN(CC)c1ccc(CNC2(C)CC(OC3C(Oc4c5cc6cc4Oc4ccc(cc4Cl)C(O)C4NC(=O)C(NC(=O)C6NC(=O)C(CC(N)=O)NC(=O)C(NC(=O)C(CC(C)C)NC)C(O)c6ccc(c(Cl)c6)O5)c5ccc(O)c(c5)-c5c(O)cc(O)cc5C(C(=O)O)NC4=O)OC(CO)C(O)C3O)OC(C)C2O)cc1` (stereo not drawn) [Example 77, N^van ( -p-diethylaminobenzyl)vancomycin]?
Answer: MIC [1]: 0.5 µg/mL (≈ 0.31 µM); MIC [2]: 0.5 µg/mL (≈ 0.31 µM); MIC [3]: 0.5 µg/mL (≈ 0.31 µM); MIC [4]: 1 µg/mL (≈ 0.621 µM); MIC [5]: 0.5 µg/mL (≈ 0.31 µM); MIC [6]: 0.25 µg/mL (≈ 0.155 µM); MIC [7]: 0.125 µg/mL (≈ 0.0776 µM); MIC [8]: 0.5 µg/mL (≈ 0.31 µM); MIC [9]: 1 µg/mL (≈ 0.621 µM); MIC [10]: 128 µg/mL (≈ 79.5 µM); MIC [11]: 128 µg/mL (≈ 79.5 µM); MIC [12]: > 128 µg/mL; MIC [13]: > 128 µg/mL; MIC [14]: > 128 µg/mL; MIC [15]: > 128 µg/mL; MIC [16]: > 128 µg/mL; MIC [17]: > 128 µg/mL; MIC [18]: 0.25 µg/mL (≈ 0.155 µM); ED50 [19]: 1.1 mg/kg/2; ED50 [20]: 0.8 mg/kg/2; ED50 [21]: 1.2 mg/kg/2

Question: With `CCCCCCCCOc1ccc(CNC2(C)CC(OC3C(Oc4c5cc6cc4Oc4ccc(cc4Cl)C(O)C4NC(=O)C(NC(=O)C6NC(=O)C(CC(N)=O)NC(=O)C(NC(=O)C(CC(C)C)NC)C(O)c6ccc(c(Cl)c6)O5)c5ccc(O)c(c5)-c5c(O)cc(O)cc5C(C(=O)O)NC4=O)OC(CO)C(O)C3O)OC(C)C2O)cc1` (stereo not drawn) [Example 94, N^van --( -p-octyloxybenzyl)vancomycin] as the molecule, how does the MIC [1] read?
Answer: 0.5 µg/mL (≈ 0.3 µM)

Question: And the MIC [2]?
Answer: 0.5 µg/mL (≈ 0.3 µM)

Question: What about the MIC [3] of the same molecule?
Answer: 0.5 µg/mL (≈ 0.3 µM)

Question: What about the MIC [4] of the same molecule?
Answer: 1 µg/mL (≈ 0.6 µM)

Question: And the MIC [5]?
Answer: 0.5 µg/mL (≈ 0.3 µM)

Question: And the MIC [6]?
Answer: 0.25 µg/mL (≈ 0.15 µM)

Question: And the MIC [7]?
Answer: 0.25 µg/mL (≈ 0.15 µM)

Question: What about the MIC [8] of the same molecule?
Answer: 0.25 µg/mL (≈ 0.15 µM)

Question: What about the MIC [9] of the same molecule?
Answer: 0.25 µg/mL (≈ 0.15 µM)

Question: And the MIC [10]?
Answer: > 128 µg/mL

Question: What about the MIC [11] of the same molecule?
Answer: > 128 µg/mL

Question: What about the MIC [12] of the same molecule?
Answer: > 128 µg/mL

Question: And the MIC [13]?
Answer: > 128 µg/mL

Question: And the MIC [14]?
Answer: > 128 µg/mL

Question: And the MIC [15]?
Answer: > 128 µg/mL

Question: And the MIC [16]?
Answer: > 128 µg/mL

Question: What about the MIC [17] of the same molecule?
Answer: > 128 µg/mL

Question: What about the MIC [18] of the same molecule?
Answer: 0.25 µg/mL (≈ 0.15 µM)

Question: And the ED50 [19]?
Answer: > 0.12 mg/kg/2

Question: And the ED50 [20]?
Answer: 0.66 mg/kg/2

Question: And the ED50 [21]?
Answer: 0.2 mg/kg/2

Question: `CNC(CC(C)C)C(=O)NC1C(=O)NC(CC(N)=O)C(=O)NC2C(=O)NC3C(=O)NC(C(=O)NC(C(=O)O)c4cc(O)cc(O)c4-c4cc3ccc4O)C(O)c3ccc(c(Cl)c3)Oc3cc2cc(c3OC2OC(CO)C(O)C(O)C2OC2CC(C)(NCc3ccc(O)cc3)C(O)C(C)O2)Oc2ccc(cc2Cl)C1O` (stereo not drawn) [Example 105, N^van --( -p-hydroxybenzyl)vancomycin] was tested. Which MIC [1] did it give?
Answer: 0.5 µg/mL (≈ 0.321 µM)

Question: And the MIC [2]?
Answer: 0.5 µg/mL (≈ 0.321 µM)

Question: And the MIC [3]?
Answer: 0.5 µg/mL (≈ 0.321 µM)

Question: What about the MIC [4] of the same molecule?
Answer: 1 µg/mL (≈ 0.643 µM)

Question: What about the MIC [5] of the same molecule?
Answer: 0.5 µg/mL (≈ 0.321 µM)

Question: What about the MIC [6] of the same molecule?
Answer: 0.5 µg/mL (≈ 0.321 µM)

Question: What about the MIC [7] of the same molecule?
Answer: 0.06 µg/mL (≈ 0.0386 µM)

Question: What about the MIC [8] of the same molecule?
Answer: 0.5 µg/mL (≈ 0.321 µM)

Question: What about the MIC [9] of the same molecule?
Answer: 2 µg/mL (≈ 1.29 µM)

Question: And the MIC [10]?
Answer: 64 µg/mL (≈ 41.1 µM)

Question: What about the MIC [11] of the same molecule?
Answer: 64 µg/mL (≈ 41.1 µM)

Question: What about the MIC [12] of the same molecule?
Answer: > 128 µg/mL

Question: What about the MIC [13] of the same molecule?
Answer: > 128 µg/mL

Question: What about the MIC [14] of the same molecule?
Answer: > 128 µg/mL

Question: What about the MIC [15] of the same molecule?
Answer: > 128 µg/mL

Question: What about the MIC [16] of the same molecule?
Answer: > 128 µg/mL

Question: And the MIC [17]?
Answer: > 128 µg/mL

Question: And the MIC [18]?
Answer: 0.5 µg/mL (≈ 0.321 µM)

Question: What about the ED50 [19] of the same molecule?
Answer: 0.98 mg/kg/2

Question: What about the ED50 [20] of the same molecule?
Answer: 1.18 mg/kg/2

Question: And the ED50 [21]?
Answer: 1.25 mg/kg/2
